The values below come from patent US20230042936A1, “PYRIDO[2,3-d]PYRIMIDIN-7(8H)-ONES AS CDK INHIBITORS” (PROSENESTAR LLC, priority 2020, published 2023).

Assay [1] relates to luminal-like (ZR75-1, T47D, MCF7) and non-luminal (HCC1143, MDA-MB-231, BT549, MDA-MB-468) breast cancer cell lines. The assay is described as follows: Relative cell growth in a panel of breast cancer cell lines (6 days). It counts as cell-based, human. The note with it: 6 days at GI50 dose (determined in MDA-MB-231); FIG. 5. The method, then: Data are mean±s.e.m. (3 technical replicates).
Relative cell proliferation was calculated by counting cell number at day 6 in treated cells versus cells treated with vehicle (DMSO).

The subject of assay [2] is pRB phosphorylation and cell cycle markers in MDA-MB-231 and MDA-MB-468 cells. The assay can be described thus: Immunoblotting of cell cycle markers. The class given is cell-based, human. Conditions: GI50 dose, 48 hours; FIG. 6. The protocol: MDA-MB-231 and MDA-MB-468 cells were treated with the indicated compounds using the G150 corresponding to the MDA-MB-231 cell line, and 48 hours later lysed in Laemmli buffer (60 mM Tris-Cl pH 6.8, 10% Glycerol, 2% SDS). Protein concentration was determined using BCA method (Pierce).

Entries after “also recorded” stand apart in the source; their conditions may differ.

Consider `CC(=O)c1c(C)c2cnc(Nc3ccc(N4CCC(CCCO)CC4)cc3)nc2n(C2CCCC2)c1=O` [PS009, 6-acetyl-8-cyclopentyl-2-((4-(4-(3-hydroxypropyl)piperidin-1-yl)phenyl)amino)-5-methylpyrido[2,3-d]pyrimidin-7(8H)-one], for which the “relative cell growth, luminal-like and non-luminal breast cancer cell lines” value in assay [1] is “efficient in both pRB-wild-type and mutant cell lines; also recorded: efficiently inhibit both luminal and non-luminal breast cancer cells; also recorded: able to inhibit proliferation in non-luminal, pRB-mutant breast cancer cells lines”. Besides, in assay [2], the “levels of cell cycle markers” value is “reduced levels of most cell cycle markers” and the pRB phosphorylation result is on record as “strong inhibition”.
